Source: US20220380370A1 (Goldfinch Bio, Inc., priority 2019, published 2022)

Target: T1, CB1 receptor (Homo sapiens, UniProt P21554)
T1 construct: Perkin Elmer (CB1-CHO cells); host or cells: Flp-In CHO cells or CB1-CHO cells, stably expressing
Assay: CB1 cAMP antagonist assay (LANCE Ultra cAMP kit)
Format: cell-based
Conditions: CHO cells stably expressing the CB1 receptor; forskolin and agonist CP55940 at EC90
Description: LANCE Ultra cAMP kit (Perkin Elmer) was used to quantitate the amount of 3′,5′-cyclic adenosine monophosphate (cAMP) produced in Flp-In CHO cells (Invitrogen) stably expressing the CB1 receptor, CB1-CHO cells (Perkin Elmer) stably expressing the CB1 receptor, or CB2-CHO cells (Perkin Elmer) stably expressing the CB2 receptor.
Forskolin was initially titrated to determine the response of the cells. The EC90 of forskolin was used for compound testing. CP55940 was titrated and used with EC90 of forskolin to determine the level of agonist stimulation. EC90 of the agonist was used for subsequent compound testing. For the CB1 assay, Forskolin (Sigma), CP55940 (Cayman Chemicals), and AM251 (MCE) were diluted in 100% DMSO, starting at 100 mM, 1 mM, and 1 mM respectively, in 3-fold serial dilutions. For the CB2 assay, Forskolin (Sigma), CP55940 (Cayman Chemicals), and AM630 (MCE) were diluted in 100% DMSO, starting at 100 mM, 1 mM, and 30 mM respectively, in 3-fold serial dilutions. Test compounds were diluted in 100% DMSO starting from 10 mM, 3-fold dilutions. The cAMP assay buffer contains 1× Hank's Buffered Saline Solution with Ca^2+ and Mg^2+ (Invitrogen), 5.3 mM HEPES (Invitrogen), 0.05% BSA, 0.5 mM IBMX (Sigma). For all assays, cells were harvested, counted, and diluted in cAMP assay buffer to 1×10^5 cells/mL. Only cells with viability >85% were used for the assay. Cells were seeded at 1000 cells/well in 384-well plates and 10 nL/well AM251 (for CB1), AM630 (for CB2) or test compound was added and incubated at 37° C. for 10 min. Then forskolin and agonist were added to reach their EC90 and incubated at 25° C. for 30 min. To detect the amount of cAMP produced, 5 μL of a 100× diluted stock of Eu-cAMP tracer and 5 μL of 200× diluted stock of Ulight-anti-cAMP were added to each well, and the plate incubated at 25° C. for 15 min. The FRET signal was read using an EnVision microplate reader (λex=320 nm, λem=615 nm and 665 nm). The results are expressed as % Inhibition, where % inhibition=100−100×(U−C2)/(C1−C2), where U is the FRET ratio (λem (665 nm)/λem (615 nm)) of sample, C1 is the average of the high controls (signal with no antagonist added), and C2 is the average of low controls (signal with the highest concentration of AM251 or AM630 antagonist). The IC50 is determined by fitting the percentage of inhibition as a function of compound concentrations with the Hill equation, using a 4-parameter fit in either XLfit or GraphPad Prism.

T1 sequence (P21554 whole entry): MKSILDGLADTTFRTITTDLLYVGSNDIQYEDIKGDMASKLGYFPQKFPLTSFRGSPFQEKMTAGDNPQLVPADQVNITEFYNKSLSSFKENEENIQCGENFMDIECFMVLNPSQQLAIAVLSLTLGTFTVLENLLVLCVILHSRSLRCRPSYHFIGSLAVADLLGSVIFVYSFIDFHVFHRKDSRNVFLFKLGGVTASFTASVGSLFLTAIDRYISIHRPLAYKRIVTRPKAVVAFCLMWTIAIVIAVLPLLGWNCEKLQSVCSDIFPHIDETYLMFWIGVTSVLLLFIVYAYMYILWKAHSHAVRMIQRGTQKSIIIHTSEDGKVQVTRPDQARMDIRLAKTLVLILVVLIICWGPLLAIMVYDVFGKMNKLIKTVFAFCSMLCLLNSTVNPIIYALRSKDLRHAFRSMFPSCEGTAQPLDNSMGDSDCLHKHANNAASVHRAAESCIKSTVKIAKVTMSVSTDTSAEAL

Row | IC50 [nM] | Compound
1 | < 100 | NC(=O)Cn1c(=O)c2c(nc(-c3ccccc3Cl)n2-c2ccc(Cl)cc2)n(Cc2ccc([C@H]3COCCO3)cc2)c1=O [Compound 141, 2-[8-(2-chlorophenyl)-7-(4-chlorophenyl)-3-([4-[(2S)-1,4-dioxan-2-yl]phenyl]methyl)-2,6-dioxopurin-1-yl]acetamide]
2 | < 100 | NC(=O)Cn1c(=O)c2c(nc(-c3ccccc3Cl)n2-c2ccc(Cl)cc2)n(Cc2ccc(CC3COCCO3)cc2)c1=O (centres unmarked) [Compound 143]
3 | < 100 | NC(=O)Cn1c(=O)c2c(nc(-c3ccccc3Cl)n2-c2ccc(Cl)cc2)n(Cc2ccc([C@@H]3COCCO3)cc2)c1=O [Compound 145, 2-[8-(2-chlorophenyl)-7-(4-chlorophenyl)-3-([4-[(2R)-1,4-dioxan-2-yl]phenyl]methyl)-2,6-dioxopurin-1-yl]acetamide]
4 | 1000 to 5000 | Cn1c(=O)[nH]c2nc(-c3ccccc3Cl)n(-c3ccc(Cl)cc3)c2c1=O [Compound 147, 8-(2-chlorophenyl)-7-(4-chlorophenyl)-1-methyl-3H-purine-2,6-dione]
5 | < 100 | Cn1c(=O)c2c(nc(-c3ccccc3Cl)n2-c2ccc(Cl)nc2)n(C2CCCCC2)c1=O [Compound 149, 8-(2-chlorophenyl)-7-(6-chloropyridin-3-yl)-3-cyclohexyl-1-methylpurine-2,6-dione]
6 | 100 to 1000 | C[C@@H](c1ccc(C(N)=O)cc1)n1c(=O)n(C[C@@H](O)CO)c(=O)c2c1nc(-c1ccccc1Cl)n2-c1ccc(Cl)cc1 [Compound 151]
7 | < 100 | Cn1c(=O)c2c(nc(-c3cccnc3Cl)n2-c2ccc(Cl)cc2)n(C2CCCCC2)c1=O [Compound 152, 7-(4-chlorophenyl)-8-(2-chloropyridin-3-yl)-3-cyclohexyl-1-methylpurine-2,6-dione]
8 | < 100 | NC(=O)Cn1c(=O)c2c(nc(-c3ccccc3Cl)n2-c2ccc(Cl)cc2)n(Cc2ccc(S(N)(=O)=O)cc2)c1=O [Compound 153]
9 | < 100 | CS(=O)(=O)c1ccc(Cn2c(=O)n(CC(N)=O)c(=O)c3c2nc(-c2ccccc2Cl)n3-c2ccc(Cl)cc2)nc1 [Compound 154]

The next lines start with the molecule.

Row | Compound | IC50 [nM]
10 | COCCOCc1ccc(Cn2c(=O)n(C)c(=O)c3c2nc(-c2ccccc2Cl)n3-c2ccc(Cl)cc2)cc1 [Compound 122, 8-(2-chlorophenyl)-7-(4-chlorophenyl)-3-([4-[(2-methoxyethoxy)methyl]phenyl]methyl)-1-methylpurine-2,6-dione] | < 100
11 | CC(=O)N1CCC(Cn2c(=O)n(CC(N)=O)c(=O)c3c2nc(-c2ccccc2Cl)n3-c2ccc(Cl)cc2)CC1 [Compound 123, 2-[3-[(1-acetylpiperidin-4-yl)methyl]-8-(2-chlorophenyl)-7-(4-chlorophenyl)-2,6-dioxopurin-1-yl]acetamide] | 100 to 1000
12 | CN(CCO)C(=O)c1ccc(Cn2c(=O)n(C)c(=O)c3c2nc(-c2ccccc2Cl)n3-c2ccc(Cl)cc2)cc1 [Compound 126] | 100 to 1000
13 | CC(=O)N1CCC(Cn2c(=O)n(C(C)C(N)=O)c(=O)c3c2nc(-c2ccccc2Cl)n3-c2ccc(Cl)cc2)CC1 (centres unmarked) [Compound 129, 2-[3-[(1-acetylpiperidin-4-yl)methyl]-8-(2-chlorophenyl)-7-(4-chlorophenyl)-2,6-dioxopurin-1-yl]propanamide] | 100 to 1000
14 | CC(=O)N1CCC(Cn2c(=O)n(C[C@@H](O)CO)c(=O)c3c2nc(-c2ccccc2Cl)n3-c2ccc(Cl)cc2)CC1 [Compound 130, (R)-3-[(1-acetylpiperidin-4-yl)methyl]-8-(2-chlorophenyl)-7-(4-chlorophenyl)-1-[2,3-dihydroxypropyl]purine-2,6-dione] | 100 to 1000
15 | NC(=O)Cn1c(=O)c2c(nc(-c3ccccc3Cl)n2-c2ccc(Cl)cc2)n(C2CCOCC2)c1=O [Compound 133] | < 100
16 | C[C@H](C(N)=O)n1c(=O)c2c(nc(-c3ccccc3Cl)n2-c2ccc(Cl)cc2)n(C2CCOCC2)c1=O [Compound 137] | 100 to 1000
17 | C[C@@H](C(N)=O)n1c(=O)c2c(nc(-c3ccccc3Cl)n2-c2ccc(Cl)cc2)n(CC2CCOCC2)c1=O [Compound 139] | < 100
